In the oligonucleotide strings, read from the 5' end, every base follows the letter of its sugar. An asterisk marks phosphorothioate; unmarked linkages are phosphodiester. Other units and linkages are bracketed, terminal groups are in braces. A string of capitals states the bases alone. e = 2'-O-(2-methoxyethyl) (MOE); [5mC] = 5-methylcytosine; d = 2'-deoxy (DNA)
test system: human apolipoprotein B mRNA; test: Inhibition of human apolipoprotein B mRNA levels in HepG2 cells, quantitative real-time PCR; assay type: cell-based; details: HepG2 cells; human apolipoprotein B mRNA; oligonucleotides targeting genomic sequence SEQ ID NO 334; averages from two experiments
Procedure, shortened: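 HepG2 cells at 80% confluency were transfected with antisense oligonucleotide using 3.75 μg/mL Lipofectin in Opti-MEM for 4-7 h and harvested 16-24 h after treatment. Apolipoprotein B mRNA was measured by real-time RT-PCR and normalized to GAPDH or RiboGreen total RNA. Percent inhibition came from untreated-control standard curves.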

Substance | % INHIB [%]
301098 (antisense eA*e[5mC]*eT*eA*eG*dA*dG*dG*dT*dA*dG*d[5mC]*d[5mC]*dA*dG*eA*eA*e[5mC]*eA*e[5mC]) [compound 301098] | 34
301099 (antisense eA*e[5mC]*e[5mC]*eA*e[5mC]*d[5mC]*dT*dG*dA*d[5mC]*dA*dT*d[5mC]*dA*d[5mC]*eA*eG*eG*eT*eT) [compound 301099] | 24
301100 (antisense eT*eA*e[5mC]*eT*eG*dT*dG*dA*d[5mC]*d[5mC]*dT*dA*dT*dG*d[5mC]*e[5mC]*eA*eG*eG*eA) [compound 301100] | 55
301101 (antisense eG*eG*eA*eG*eG*dT*dG*d[5mC]*dT*dA*d[5mC]*dT*dG*dT*dT*eG*eA*e[5mC]*eA*eT) [compound 301101] | 42
301102 (antisense eT*e[5mC]*e[5mC]*eA*eG*dA*d[5mC]*dT*dT*dG*dT*d[5mC]*dT*dG*dA*eG*eT*e[5mC]*eT*eA) [compound 301102] | 47
301103 (antisense eT*e[5mC]*eT*eA*eA*dG*dA*dG*dG*dT*dA*dG*dA*dG*d[5mC]*eT*eA*eA*eA*eG) [compound 301103] | 7
301104 (antisense e[5mC]*e[5mC]*eA*eG*eA*dG*dA*dT*dG*dA*dG*d[5mC]*dA*dA*d[5mC]*eT*eT*eA*eG*eG) [compound 301104] | 38
301105 (antisense eG*eG*e[5mC]*e[5mC]*eA*dT*dG*dT*dA*dA*dA*dT*dT*dG*d[5mC]*eT*e[5mC]*eA*eT*e[5mC]) [compound 301105] | 7
301106 (antisense eA*eA*eA*eG*eA*dA*dA*d[5mC]*dT*dA*dT*d[5mC]*d[5mC]*dT*dG*eT*eA*eT*eT*e[5mC]) [compound 301106] | 12
301107 (antisense eT*eT*e[5mC]*eT*eT*dA*dG*dT*dA*d[5mC]*d[5mC]*dT*dG*dG*dA*eA*eG*eA*eT*eG) [compound 301107] | 23
301108 (antisense e[5mC]*eA*eT*eT*eA*dG*dA*dT*dA*d[5mC]*d[5mC]*dT*dG*dG*dA*e[5mC]*eA*e[5mC]*e[5mC]*eT) [compound 301108] | 29
301109 (antisense eG*eT*eT*eT*e[5mC]*dA*dT*dG*dG*dA*dA*d[5mC]*dT*d[5mC]*dA*eG*e[5mC]*eG*e[5mC]*eA) [compound 301109] | 44
301110 (antisense e[5mC]*eT*eG*eG*eA*dG*dA*dG*d[5mC]*dA*d[5mC]*d[5mC]*dT*dG*d[5mC]*eA*eA*eT*eA*eG) [compound 301110] | 35
301111 (antisense eT*eG*eA*eA*eG*dG*dG*dT*dA*dG*dA*dG*dA*dA*dA*eT*e[5mC]*eA*eT*eA) [compound 301111] | 9
301112 (antisense eG*eG*eA*eA*eA*d[5mC]*dT*d[5mC]*dA*d[5mC]*dT*dT*dG*dT*dT*eG*eA*e[5mC]*e[5mC]*eG) [compound 301112] | 25
301113 (antisense eA*eG*eG*eT*eG*d[5mC]*dA*dA*dG*dA*dT*dG*dT*dT*d[5mC]*e[5mC]*eT*e[5mC]*eT*eG) [compound 301113] | 46
301114 (antisense eT*eG*e[5mC]*eA*e[5mC]*dA*dG*dA*dG*dG*dT*dG*d[5mC]*dA*dA*eG*eA*eT*eG*eT) [compound 301114] | 16
301115 (antisense e[5mC]*eA*e[5mC]*eA*eA*dG*dA*dG*dT*dA*dA*dG*dG*dA*dG*e[5mC]*eA*eG*eA*eG) [compound 301115] | 39
301116 (antisense eG*eA*eT*eG*eG*dA*dT*dG*dG*dT*dG*dA*dG*dA*dA*eA*eT*eT*eA*e[5mC]) [compound 301116] | 33
301117 (antisense eT*eA*eG*eA*e[5mC]*dA*dA*dT*dT*dG*dA*dG*dA*d[5mC]*dT*e[5mC]*eA*eG*eA*eA) [compound 301117] | 39
301118 (antisense eA*eT*eG*eT*eG*d[5mC]*dA*d[5mC]*dA*d[5mC]*dA*dA*dG*dG*dA*e[5mC]*eA*eT*eA*eG) [compound 301118] | 33
301119 (antisense eA*e[5mC]*eA*eT*eA*d[5mC]*dA*dA*dA*dT*dG*dG*d[5mC]*dA*dA*eT*eA*eG*eG*e[5mC]) [compound 301119] | 33
301120 (antisense eT*eA*eG*eG*e[5mC]*dA*dA*dA*dG*dG*dA*d[5mC]*dA*dT*dG*eA*eA*eT*eA*eG) [compound 301120] | 30
301121 (antisense eT*eT*eA*eT*eG*dA*dT*dA*dG*d[5mC]*dT*dA*d[5mC]*dA*dG*eA*eA*eT*eA*eA) [compound 301121] | 29
301122 (e[5mC]*eT*eG*eA*eG*dA*dT*dT*dA*d[5mC]*d[5mC]*d[5mC]*dG*d[5mC]*dA*eG*eA*eA*eT*e[5mC]; antisense) [compound 301122] | 32
301123 (eG*eA*eT*eG*eT*dA*dT*dG*dT*d[5mC]*dA*dT*dA*dT*dA*eA*eA*eA*eG*eA; antisense) [compound 301123] | 26

Substance | % INHIB [%]
301124 (eT*eT*eT*e[5mC]*e[5mC]*dA*dA*dT*dG*dA*d[5mC]*d[5mC]*dT*dG*d[5mC]*eA*eT*eT*eG*eA; antisense) [compound 301124] | 48
301125 (eA*eG*eG*eG*eA*dT*dG*dG*dT*d[5mC]*dA*dA*dT*d[5mC]*dT*eG*eG*eT*eA*eG; antisense) [compound 301125] | 57
301126 (eG*eG*e[5mC]*eT*eA*dA*dT*dA*dA*dA*dT*dA*dG*dG*dG*eT*eA*eG*eT*eT; antisense) [compound 301126] | 22
301127 (eT*e[5mC]*e[5mC]*eT*eA*dG*dA*dG*d[5mC]*dA*d[5mC]*dT*dA*dT*d[5mC]*eA*eA*eG*eT*eA; antisense) [compound 301127] | 41
301128 (e[5mC]*e[5mC]*eT*e[5mC]*e[5mC]*dT*dG*dG*dT*d[5mC]*d[5mC]*dT*dG*d[5mC]*dA*eG*eT*e[5mC]*eA*eA; antisense) [compound 301128] | 56
301129 (e[5mC]*eA*eT*eT*eT*dG*d[5mC]*dA*d[5mC]*dA*dA*dG*dT*dG*dT*eT*eT*eG*eT*eT; antisense) [compound 301129] | 35
301130 (e[5mC]*eT*eG*eA*e[5mC]*dA*d[5mC]*dA*d[5mC]*d[5mC]*dA*dT*dG*dT*dT*eA*eT*eT*eA*eT; antisense) [compound 301130] | 10
301131 (e[5mC]*eT*eT*eT*eT*dT*d[5mC]*dA*dG*dA*d[5mC]*dT*dA*dG*dA*eT*eA*eA*eG*eA; antisense) [compound 301131] | 0
301132 (eT*e[5mC]*eA*e[5mC]*eA*d[5mC]*dT*dT*dA*d[5mC]*d[5mC]*dT*d[5mC]*dG*dA*eT*eG*eA*eG*eG; antisense) [compound 301132] | 29
301133 (eA*eA*eG*eA*eA*dA*dA*dT*dG*dG*d[5mC]*dA*dT*d[5mC]*dA*eG*eG*eT*eT*eT; antisense) [compound 301133] | 13
301134 (e[5mC]*e[5mC]*eA*eA*eG*d[5mC]*d[5mC]*dA*dA*dT*d[5mC]*dT*dG*dA*dG*eA*eA*eA*eG*eA; antisense) [compound 301134] | 25
301135 (eA*eA*eA*eT*eA*d[5mC]*dA*d[5mC]*dA*d[5mC]*d[5mC]*dT*dG*d[5mC]*dT*e[5mC]*eA*eT*eG*eT; antisense) [compound 301135] | 20
301136 (e[5mC]*eT*eT*e[5mC]*eA*d[5mC]*dA*dA*dA*dT*dA*d[5mC]*dA*d[5mC]*dA*e[5mC]*e[5mC]*eT*eG*e[5mC]; antisense) [compound 301136] | 20
301137 (eA*eG*eT*eG*eG*dA*dA*dG*dT*dT*dT*dG*dG*dT*d[5mC]*eT*e[5mC]*eA*eT*eT; antisense) [compound 301137] | 41
301138 (eT*eT*eG*e[5mC]*eT*dA*dG*d[5mC]*dT*dT*d[5mC]*dA*dA*dA*dG*eT*eG*eG*eA*eA; antisense) [compound 301138] | 44
301139 (eT*e[5mC]*eA*eA*eG*dA*dA*dT*dA*dA*dG*d[5mC]*dT*d[5mC]*d[5mC]*eA*eG*eA*eT*e[5mC]; antisense) [compound 301139] | 41
301140 (eG*e[5mC]*eA*eT*eA*d[5mC]*dA*dA*dG*dT*d[5mC]*dA*d[5mC]*dA*dT*eG*eA*eG*eG*eT; antisense) [compound 301140] | 34
301141 (eT*eA*e[5mC]*eA*eA*dG*dG*dT*dG*dT*dT*dT*d[5mC]*dT*dT*eA*eA*eG*eA*eA; antisense) [compound 301141] | 38
301142 (eA*eT*eG*e[5mC]*eA*dG*d[5mC]*d[5mC]*dA*dG*dG*dA*dT*dG*dG*eG*e[5mC]*e[5mC]*eT*eA; antisense) [compound 301142] | 54
301143 (eT*eT*eA*e[5mC]*e[5mC]*dA*dT*dA*dT*d[5mC]*d[5mC]*dT*dG*dA*dG*eA*eG*eT*eT*eT; antisense) [compound 301143] | 55
301144 (eG*e[5mC]*eA*eA*eA*dG*dG*dT*dA*dG*dA*dG*dG*dA*dA*eG*eG*eT*eA*eT; antisense) [compound 301144] | 32
301145 (eA*eA*eG*eG*eA*d[5mC]*d[5mC]*dT*dT*d[5mC]*dA*dG*d[5mC]*dA*dA*eA*eG*eG*eT*eA; antisense) [compound 301145] | 36
301146 (e[5mC]*eA*eT*eA*eG*dG*dA*dG*dT*dA*d[5mC]*dA*dT*dT*dT*eA*eT*eA*eT*eA; antisense) [compound 301146] | 23
301147 (eA*eT*eT*eA*eT*dG*dA*dT*dA*dA*dA*dA*dT*d[5mC]*dA*eA*eT*eT*eT*eT; antisense) [compound 301147] | 19
301148 (eA*eG*eA*eA*eA*dT*dT*dT*d[5mC]*dA*d[5mC]*dT*dA*dG*dA*eT*eA*eG*eA*eT; antisense) [compound 301148] | 31
